Consider one compound from article PMC3832475, “Discovery of Dihydrochalcone as Potential Lead for Alzheimer’s Disease: In Silico and In Vitro Study” (PLoS ONE, 2013).

The experiment deals with T1, amyloid beta (Aβ40) (Homo sapiens, UniProt P05067).
T1 construct: gene APP; Aβ40 peptide (40 amino acids)
Nature of the experiment: ThT fluorescence fibrillization assay with purified Aβ[…]), end-point confirmed by TEM. Format: biochemical.

T1 sequence (P05067 672-711 limits assumed): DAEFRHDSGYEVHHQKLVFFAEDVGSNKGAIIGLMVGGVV

In general, IC50 refers to the concentration at which inhibition is half-maximal. For `O=C(CCc1ccccc1)c1ccccc1` [Dihydrochalcone], the IC50 was roughly 2460 nM.
